According to the NIST ThermoML archive (doi:10.1021/je7002836):

Tests used:
[1] = xn = mol fraction of the nth substance listed; settings: 101 kPa, Liquid
[2] = molar heat capacity at constant pressure; xn = mol fraction of the nth substance listed; settings: 101 kPa, Liquid

CCCC[n+]1cccc(C)c1.F[B-](F)(F)F [1-butyl-3-methylpyridinium tetrafluoroborate] + CCO
Settings | mass density, [1] [kg/m3] | molar heat capacity at constant pressure, [2] [J/K/mol]
293.15 K, x1 = 0.0073 | 800.5 | 113.6
293.15 K, x1 = 0.0126 | 807.8 | 115.2
293.15 K, x1 = 0.0231 | 821.5 | 119.1
293.15 K, x1 = 0.0512 | 855.1 | 129.4
293.15 K, x1 = 0.1003 | 904.1 | 146.4
293.15 K, x1 = 0.2569 | 1010.3 | 190.3
293.15 K, x1 = 0.3847 | 1065.4 | 223.7
293.15 K, x1 = 0.4841 | 1097.1 | –
293.15 K, x1 = 0.5031 | – | 252.6
293.15 K, x1 = 0.5963 | 1124.9 | 276.9
293.15 K, x1 = 0.6919 | – | 301.6
293.15 K, x1 = 0.7107 | 1148 | –
293.15 K, x1 = 0.7784 | – | 324.5
293.15 K, x1 = 0.7966 | 1162.2 | –
293.15 K, x1 = 0.8711 | – | 350
293.15 K, x1 = 0.8923 | – | 355.9
293.15 K, x1 = 0.9514 | 1183.1 | 372.8
293.15 K, x1 = 1 | 1188.6 | 385.8
298.15 K, x1 = 0.0073 | 796.3 | 115.4
298.15 K, x1 = 0.0126 | 803.5 | 117.1
298.15 K, x1 = 0.0231 | 817.3 | 120.9
298.15 K, x1 = 0.0512 | 851 | 131
298.15 K, x1 = 0.1003 | 900.1 | 147.5
298.15 K, x1 = 0.2569 | 1006.4 | 191.3
298.15 K, x1 = 0.3847 | 1061.6 | 224.8
298.15 K, x1 = 0.4841 | 1093.4 | –
298.15 K, x1 = 0.5031 | – | 254.2
298.15 K, x1 = 0.5963 | 1121.3 | 278.5
298.15 K, x1 = 0.6919 | – | 303.4
298.15 K, x1 = 0.7107 | 1144.5 | –
298.15 K, x1 = 0.7784 | – | 326.6
298.15 K, x1 = 0.7966 | 1158.7 | –
298.15 K, x1 = 0.8711 | – | 352.1
298.15 K, x1 = 0.8923 | – | 358.1
298.15 K, x1 = 0.9514 | 1179.6 | 375.1
298.15 K, x1 = 1 | 1185.2 | 387.7
303.15 K, x1 = 0.0073 | 792 | 117.3
303.15 K, x1 = 0.0126 | 799.3 | 119.1
303.15 K, x1 = 0.0231 | 813 | 122.7
303.15 K, x1 = 0.0512 | 846.8 | 132.6
303.15 K, x1 = 0.1003 | 896 | 148.7
303.15 K, x1 = 0.2569 | 1002.6 | 192.4
303.15 K, x1 = 0.3847 | 1057.9 | 226
303.15 K, x1 = 0.4841 | 1089.7 | –
303.15 K, x1 = 0.5031 | – | 255.7
303.15 K, x1 = 0.5963 | 1117.7 | 280.1
303.15 K, x1 = 0.6919 | – | 305.3
303.15 K, x1 = 0.7107 | 1140.9 | –
303.15 K, x1 = 0.7784 | – | 328.9
303.15 K, x1 = 0.7966 | 1155.2 | –
303.15 K, x1 = 0.8711 | – | 354.4
303.15 K, x1 = 0.8923 | – | 360.5
303.15 K, x1 = 0.9514 | 1176.2 | 377.4
303.15 K, x1 = 1 | 1181.7 | 390.1
308.15 K, x1 = 0.0073 | 787.6 | 119.5
308.15 K, x1 = 0.0126 | 794.9 | 121.2
308.15 K, x1 = 0.0231 | 808.8 | 124.7
308.15 K, x1 = 0.0512 | 842.6 | 134.3
308.15 K, x1 = 0.1003 | 891.9 | 150.1
308.15 K, x1 = 0.2569 | 998.7 | 193.6
308.15 K, x1 = 0.3847 | 1054.2 | 227.2
308.15 K, x1 = 0.4841 | 1086.1 | –
308.15 K, x1 = 0.5031 | – | 257.3
308.15 K, x1 = 0.5963 | 1114.2 | 281.8
308.15 K, x1 = 0.6919 | – | 307.3
308.15 K, x1 = 0.7107 | 1137.4 | –
308.15 K, x1 = 0.7784 | – | 331.1
308.15 K, x1 = 0.7966 | 1151.7 | –
308.15 K, x1 = 0.8711 | – | 356.9
308.15 K, x1 = 0.8923 | – | 363
308.15 K, x1 = 0.9514 | 1172.8 | 379.7
308.15 K, x1 = 1 | 1178.3 | 392.8
313.15 K, x1 = 0.0073 | 783.3 | 121.7
313.15 K, x1 = 0.0126 | 790.6 | 123.3
313.15 K, x1 = 0.0231 | 804.5 | 126.7
313.15 K, x1 = 0.0512 | 838.4 | 136
313.15 K, x1 = 0.1003 | 887.8 | 151.6
313.15 K, x1 = 0.2569 | 994.8 | 194.9
313.15 K, x1 = 0.3847 | 1050.4 | 228.5
313.15 K, x1 = 0.4841 | 1082.4 | –
313.15 K, x1 = 0.5031 | – | 258.9
313.15 K, x1 = 0.5963 | 1110.6 | 283.5
313.15 K, x1 = 0.6919 | – | 309.4
313.15 K, x1 = 0.7107 | 1133.9 | –
313.15 K, x1 = 0.7784 | – | 333.5
313.15 K, x1 = 0.7966 | 1148.3 | –
313.15 K, x1 = 0.8711 | – | 359.5
313.15 K, x1 = 0.8923 | – | 365.7
313.15 K, x1 = 0.9514 | 1169.4 | 382
313.15 K, x1 = 1 | 1174.9 | 395.9
318.15 K, x1 = 0.0073 | 778.9 | 124.1
318.15 K, x1 = 0.0126 | 786.2 | 125.6
318.15 K, x1 = 0.0231 | 800.3 | 128.8
318.15 K, x1 = 0.0512 | 834.1 | 137.9
318.15 K, x1 = 0.1003 | 883.7 | 153.2
318.15 K, x1 = 0.2569 | 990.9 | 196.2
318.15 K, x1 = 0.3847 | 1046.7 | 229.8
318.15 K, x1 = 0.4841 | 1078.7 | –
318.15 K, x1 = 0.5031 | – | 260.4
318.15 K, x1 = 0.5963 | 1107.1 | 285.3
318.15 K, x1 = 0.6919 | – | 311.5
318.15 K, x1 = 0.7107 | 1130.4 | –
318.15 K, x1 = 0.7784 | – | 335.9
318.15 K, x1 = 0.7966 | 1144.8 | –
318.15 K, x1 = 0.8711 | – | 362.2
318.15 K, x1 = 0.8923 | – | 368.5
318.15 K, x1 = 0.9514 | 1166 | 384.4
318.15 K, x1 = 1 | 1171.6 | 399.3
